Among the data in ChEMBL document CHEMBL4311945, “Development of Dual Chitinase Inhibitors as Potential New Treatment for Respiratory System Diseases” (J Med Chem, 2019) are IC50, inhibition and logD values, retold here.

Molecules are shown by their SMILES.

The target of series [1] is Chitotriosidase-1 (Homo sapiens, UniProt Q13231). The experiment in a line: Inhibition of full-length C-terminal his-tagged human CHIT1 expressed in CHOK1 cells assessed as reduction in chitinolytic activity using 4-methylumbelliferyl-beta-D-N,N',N\"-triacetylchitotrioside as substrate after 60 mins by fluorometric assay. Type of series: cell-based.
Chain of Chitotriosidase-1 (Homo sapiens, UniProt Q13231) (Q13231 whole entry): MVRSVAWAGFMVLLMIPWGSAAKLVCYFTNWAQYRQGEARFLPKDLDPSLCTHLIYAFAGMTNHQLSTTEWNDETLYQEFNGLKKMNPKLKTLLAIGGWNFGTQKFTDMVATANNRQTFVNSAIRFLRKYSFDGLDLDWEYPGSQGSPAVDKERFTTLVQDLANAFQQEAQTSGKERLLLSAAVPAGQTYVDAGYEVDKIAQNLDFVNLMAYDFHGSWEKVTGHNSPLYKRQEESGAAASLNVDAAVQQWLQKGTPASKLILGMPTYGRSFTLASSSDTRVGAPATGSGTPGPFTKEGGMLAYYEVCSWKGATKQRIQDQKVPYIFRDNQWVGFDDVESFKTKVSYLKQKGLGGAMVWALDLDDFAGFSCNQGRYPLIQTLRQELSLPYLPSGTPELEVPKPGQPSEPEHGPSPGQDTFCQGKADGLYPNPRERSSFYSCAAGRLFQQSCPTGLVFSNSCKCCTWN
Series [2] addresses Chitotriosidase-1 (Mus musculus, UniProt Q9D7Q1). The experiment in a line: Inhibition of full-length C-terminal his-tagged mouse CHIT1 expressed in CHO-K1 cells assessed as reduction in chitinolytic activity using 4-methylumbelliferyl-beta-D-N,N',N\"-triacetylchitotrioside as substrate after 60 mins by fluorometric assay. The series is classed as cell-based.
For series [3], the target named is Acidic mammalian chitinase (Mus musculus, UniProt Q91XA9). The experiment in a line: Inhibition of full-length C-terminal his-tagged mouse acidic mammalian chitinase expressed in CHO-K1 cells assessed as reduction in chitinolytic activity using 4-methylumbelliferyl-beta-D-N,N'-diacetylchitobioside hydrate as substrate after 60 mins by fluorometric assay.
Chain of Acidic mammalian chitinase (Mus musculus, UniProt Q91XA9) (Q91XA9 whole entry): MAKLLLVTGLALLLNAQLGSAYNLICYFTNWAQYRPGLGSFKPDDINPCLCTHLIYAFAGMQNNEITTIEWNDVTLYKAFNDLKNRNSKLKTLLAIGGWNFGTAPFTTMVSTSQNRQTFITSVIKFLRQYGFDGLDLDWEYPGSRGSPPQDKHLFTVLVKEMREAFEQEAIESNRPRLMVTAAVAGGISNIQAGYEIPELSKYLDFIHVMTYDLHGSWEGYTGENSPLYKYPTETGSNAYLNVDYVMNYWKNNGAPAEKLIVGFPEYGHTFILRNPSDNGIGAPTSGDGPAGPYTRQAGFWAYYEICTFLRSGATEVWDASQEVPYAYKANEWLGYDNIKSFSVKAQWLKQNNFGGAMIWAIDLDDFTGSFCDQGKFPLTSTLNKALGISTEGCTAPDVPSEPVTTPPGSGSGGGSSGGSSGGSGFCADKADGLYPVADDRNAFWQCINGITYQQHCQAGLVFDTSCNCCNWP
Series [4] addresses dopamine transporter (DAT) (Homo sapiens, UniProt Q01959). The experiment in a line: Displacement of [3H]BTCP from recombinant human dopamine transporter at 10 uM after 120 mins by scintillation counting analysis relative to control. The series is classed as ADME. The following applies: probe [3H]BTCP. For orientation: Loss of bound radioactivity is the signal in a displacement assay; it reports binding, not function.

Series [5] has as its target Voltage-gated inwardly rectifying potassium channel KCNH2 (Homo sapiens, UniProt Q12809). Put plainly: Displacement of Tracer Red from human ERG by fluorescence polarization assay.
Series [6] can be described thus: Lipophilicity, logD of the compound at pH 7.4. Type of series: physicochemical. The following applies: buffer.
For series [7], the target named is Acidic mammalian chitinase (Homo sapiens, UniProt Q9BZP6). Put plainly: Inhibition of full-length C-terminal his-tagged human acidic mammalian chitinase expressed in CHOK1 cells assessed as reduction in chitinolytic activity using 4-methylumbelliferyl-beta-D-N,N-diacetylchitobioside hydrate as substrate after 60 mins by fluorometric assay.
Chain of Acidic mammalian chitinase (Homo sapiens, UniProt Q9BZP6) (Q9BZP6 whole entry): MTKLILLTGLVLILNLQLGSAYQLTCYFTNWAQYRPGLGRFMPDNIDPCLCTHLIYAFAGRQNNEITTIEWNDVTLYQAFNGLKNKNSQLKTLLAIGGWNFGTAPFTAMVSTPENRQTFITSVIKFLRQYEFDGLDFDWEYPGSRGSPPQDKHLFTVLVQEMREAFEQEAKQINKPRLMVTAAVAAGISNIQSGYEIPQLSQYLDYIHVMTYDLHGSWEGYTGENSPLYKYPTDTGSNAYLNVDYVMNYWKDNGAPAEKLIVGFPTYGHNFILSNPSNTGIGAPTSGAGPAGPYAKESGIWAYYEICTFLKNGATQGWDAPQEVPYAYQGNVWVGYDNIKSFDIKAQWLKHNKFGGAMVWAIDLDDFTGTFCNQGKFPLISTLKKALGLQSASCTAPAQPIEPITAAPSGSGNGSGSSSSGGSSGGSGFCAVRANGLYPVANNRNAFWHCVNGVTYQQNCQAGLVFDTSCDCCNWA

Chain of dopamine transporter (DAT) (Q01959 whole entry): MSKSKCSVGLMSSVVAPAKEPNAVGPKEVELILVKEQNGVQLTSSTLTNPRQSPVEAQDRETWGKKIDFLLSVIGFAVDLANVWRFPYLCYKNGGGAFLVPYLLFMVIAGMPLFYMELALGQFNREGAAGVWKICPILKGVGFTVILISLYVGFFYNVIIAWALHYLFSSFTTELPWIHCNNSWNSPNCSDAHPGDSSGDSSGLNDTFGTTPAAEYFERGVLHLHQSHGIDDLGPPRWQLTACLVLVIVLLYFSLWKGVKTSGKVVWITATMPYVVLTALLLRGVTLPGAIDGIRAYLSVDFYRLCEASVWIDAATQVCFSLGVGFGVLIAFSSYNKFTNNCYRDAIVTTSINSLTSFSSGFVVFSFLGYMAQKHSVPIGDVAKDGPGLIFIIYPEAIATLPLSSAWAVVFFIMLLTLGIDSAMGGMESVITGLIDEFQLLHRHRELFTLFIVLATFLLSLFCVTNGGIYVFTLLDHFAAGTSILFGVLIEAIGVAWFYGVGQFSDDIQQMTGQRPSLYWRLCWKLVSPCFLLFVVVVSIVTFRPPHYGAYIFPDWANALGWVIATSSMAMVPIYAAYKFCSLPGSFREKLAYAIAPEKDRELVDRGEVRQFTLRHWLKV
Chain of Voltage-gated inwardly rectifying potassium channel KCNH2 (Q12809 whole entry): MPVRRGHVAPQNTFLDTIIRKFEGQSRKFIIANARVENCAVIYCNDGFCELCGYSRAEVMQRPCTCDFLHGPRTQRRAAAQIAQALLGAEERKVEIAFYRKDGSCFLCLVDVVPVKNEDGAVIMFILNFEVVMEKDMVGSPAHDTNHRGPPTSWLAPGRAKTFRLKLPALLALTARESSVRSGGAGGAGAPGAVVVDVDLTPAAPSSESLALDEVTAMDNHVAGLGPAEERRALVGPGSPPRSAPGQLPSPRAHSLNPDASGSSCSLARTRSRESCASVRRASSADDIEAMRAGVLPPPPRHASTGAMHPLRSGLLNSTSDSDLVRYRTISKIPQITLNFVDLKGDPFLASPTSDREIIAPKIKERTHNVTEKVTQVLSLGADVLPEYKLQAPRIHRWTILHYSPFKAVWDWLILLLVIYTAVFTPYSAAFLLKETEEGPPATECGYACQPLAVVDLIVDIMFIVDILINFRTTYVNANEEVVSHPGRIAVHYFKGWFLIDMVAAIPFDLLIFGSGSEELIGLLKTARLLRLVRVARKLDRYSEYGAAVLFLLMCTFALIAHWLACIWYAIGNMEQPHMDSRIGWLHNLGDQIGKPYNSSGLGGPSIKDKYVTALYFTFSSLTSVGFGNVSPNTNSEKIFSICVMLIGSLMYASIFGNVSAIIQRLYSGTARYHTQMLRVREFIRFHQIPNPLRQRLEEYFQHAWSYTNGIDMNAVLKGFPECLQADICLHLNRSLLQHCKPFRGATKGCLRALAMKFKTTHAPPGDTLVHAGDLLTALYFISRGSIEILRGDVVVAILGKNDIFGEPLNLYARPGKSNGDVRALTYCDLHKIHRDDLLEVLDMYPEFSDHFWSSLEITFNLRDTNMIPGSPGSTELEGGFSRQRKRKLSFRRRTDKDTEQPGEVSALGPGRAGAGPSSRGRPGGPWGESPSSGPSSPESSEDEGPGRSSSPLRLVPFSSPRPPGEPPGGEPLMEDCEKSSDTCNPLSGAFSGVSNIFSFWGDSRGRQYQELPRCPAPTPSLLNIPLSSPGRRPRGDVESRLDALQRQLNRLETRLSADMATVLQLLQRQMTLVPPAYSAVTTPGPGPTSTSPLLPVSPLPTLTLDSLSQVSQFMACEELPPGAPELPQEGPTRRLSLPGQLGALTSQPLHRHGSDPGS
Chain of Chitotriosidase-1 (Mus musculus, UniProt Q9D7Q1) (Q9D7Q1 whole entry): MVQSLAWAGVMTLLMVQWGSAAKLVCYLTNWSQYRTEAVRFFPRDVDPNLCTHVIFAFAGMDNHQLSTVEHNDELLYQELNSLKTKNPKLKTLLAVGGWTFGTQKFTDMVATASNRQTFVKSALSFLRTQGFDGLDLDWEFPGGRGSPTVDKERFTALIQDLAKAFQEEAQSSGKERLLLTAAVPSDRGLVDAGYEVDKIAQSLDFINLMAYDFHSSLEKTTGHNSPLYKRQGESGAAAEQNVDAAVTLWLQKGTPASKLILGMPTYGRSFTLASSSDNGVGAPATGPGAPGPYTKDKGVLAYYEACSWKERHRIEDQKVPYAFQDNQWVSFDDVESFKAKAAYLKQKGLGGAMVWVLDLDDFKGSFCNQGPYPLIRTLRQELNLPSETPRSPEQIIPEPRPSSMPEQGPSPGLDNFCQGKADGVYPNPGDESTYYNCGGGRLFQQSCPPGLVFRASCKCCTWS

As to `CNS(=O)(=O)CCN(CCc1ccc(Cl)cc1)C1CCN(c2nc(N)n[nH]2)CC1`, the IC50 at Chitotriosidase-1 [1] worked out at 870 nM; on Chitotriosidase-1 [2], 7550 nM; in series [3], 21 nM. The inhibition at 2 h, 10 µM in series [4] was 13%.
Consider `C[C@@H](O)CN(CCc1ccc(Cl)cc1)C1CCN(c2nc(N)n[nH]2)CC1`, for which the values for the IC50 (on Chitotriosidase-1 [1]; on Chitotriosidase-1 [2]; in series [5]) were 330 nM, 6800 nM and 6100 nM, respectively.
As for `CO[C@@H](C)CN(CCc1ccc(Cl)cc1)C1CCN(c2nc(N)n[nH]2)CC1`, the IC50 at Chitotriosidase-1 [1] was 44 nM; on Chitotriosidase-1 [2] it was 1150 nM; in series [3] it was 53 nM; in series [5], 17600 nM. Also, the inhibition at 2 h, 10 µM in series [4] stood at 33%.
With `Nc1nnc(N2CCC(N3C[C@@H](O)C[C@@H]3Cc3ccc(Cl)cc3)CC2)[nH]1`, the IC50 was determined as 520 nM at Chitotriosidase-1 [2], 170 nM in series [3] and 13200 nM in series [5]. Besides, the logD in series [6] turned out to be 0.81.
Take `Nc1nnc(N2CCC(N3CCCC[C@@H]3Cc3ccc(Cl)cc3)CC2)[nH]1`: the IC50 at Chitotriosidase-1 [1] was determined as 41 nM; in series [7], 23 nM; at Chitotriosidase-1 [2], 87 nM; in series [3], 81 nM; in series [5], 8300 nM. This compound registered a logD in series [6] of 1.41.
For the compound `Nc1n[nH]c(N2CCC(N(CCc3ccc(Cl)cc3)CC3CCCO3)CC2)n1` (configuration not stated), the IC50 on Chitotriosidase-1 [1] came to 27 nM; on Chitotriosidase-1 [2], 1080 nM; in series [3], 17 nM; in series [5] it was 15000 nM. In series [4], the inhibition at 2 h, 10 µM was found to be 74%.
Turning to `COCCN(CCc1ccc(Cl)cc1)C1CCN(c2nc(N)n[nH]2)CC1`, the IC50 at Chitotriosidase-1 [1] is 84 nM; on Chitotriosidase-1 [2], 1700 nM; in series [3], 55 nM; in series [5], 2800 nM.
`Nc1nc(N2CCC(N3C[C@H](O)C[C@@H]3Cc3ccc(Cl)cc3)CC2)n[nH]1`: the IC50 at Chitotriosidase-1 [2] was 135 nM; in series [3], 68 nM; in series [5], 55000 nM. In series [6], the logD stood at 0.68.
With `Nc1n[nH]c(N2CCC(N3CCC(c4ccc(Cl)cc4)C3)CC2)n1` (configuration not stated), the IC50 at Chitotriosidase-1 [1] came to 19500 nM; at Chitotriosidase-1 [2], 37000 nM; in series [3], 2600 nM.
With `Nc1n[nH]c(N2CCC(N3CCCC(c4ccc(Cl)cc4)C3)CC2)n1` (configuration not stated), the IC50 was 1850 nM on Chitotriosidase-1 [1], 19000 nM on Chitotriosidase-1 [2] and 335 nM in series [3].
Turning to `Nc1n[nH]c(N2CCC(N(CCc3ccc(Cl)cc3)CC3CCCCO3)CC2)n1` (configuration not stated), the IC50 at Chitotriosidase-1 [1] amounted to 21 nM; on Chitotriosidase-1 [2], 750 nM; in series [3], 56 nM; in series [5], 11000 nM. The inhibition at 2 h, 10 µM in series [4] worked out at 50%.
In the case of `CC(=O)NCCN(CCc1ccc(Cl)cc1)C1CCN(c2nc(N)n[nH]2)CC1`, the IC50 is 495 nM at Chitotriosidase-1 [1], 8100 nM at Chitotriosidase-1 [2], 35 nM in series [3] and 3300 nM in series [5].
Regarding `CO[C@H]1CN(C2CCN(c3nnc(N)[nH]3)CC2)[C@H]1Cc1ccc(Cl)cc1`, the IC50 at Chitotriosidase-1 [1] came out at 580 nM; on Chitotriosidase-1 [2], 5550 nM; in series [3] it was 485 nM; in series [5], 340 nM. The same compound displayed a logD in series [6] of 1.55.
With `CS(=O)(=O)NCCN(CCc1ccc(Cl)cc1)C1CCN(c2nc(N)n[nH]2)CC1`, the IC50 came to 1200 nM at Chitotriosidase-1 [1], 12500 nM at Chitotriosidase-1 [2], 22 nM in series [3] and 7200 nM in series [5]. Besides, the inhibition at 2 h, 10 µM in series [4] came out at 4%.
As for `Nc1n[nH]c(N2CCC(N(CCO)CCc3ccc(Cl)cc3)CC2)n1`, the IC50 stood at 384 nM at Chitotriosidase-1 [1], 4800 nM on Chitotriosidase-1 [2], 135 nM in series [3] and 6300 nM in series [5].
Taken in the same sequence, the figures for `CNC(=O)CN(CCc1ccc(Cl)cc1)C1CCN(c2nc(N)n[nH]2)CC1` were 1800 nM, 48000 nM, 1150 nM and 2600 nM.
With `COC(C)(C)CN(CCc1ccc(Cl)cc1)C1CCN(c2nc(N)n[nH]2)CC1`, the IC50 was determined as 505 nM on Chitotriosidase-1 [1], 3650 nM on Chitotriosidase-1 [2] and 3500 nM in series [5].
For the compound `CC(C)(O)CN(CCc1ccc(Cl)cc1)C1CCN(c2nc(N)n[nH]2)CC1`, the IC50 at Chitotriosidase-1 [1] is 395 nM; at Chitotriosidase-1 [2] it was 4700 nM; in series [3], 73 nM; in series [5], 19000 nM.
On to `CO[C@@H]1C[C@H](Cc2ccc(Cl)cc2)N(C2CCN(c3n[nH]c(N)n3)CC2)C1`, for which the values for the IC50 (on Chitotriosidase-1 [1]; at Chitotriosidase-1 [2]; in series [3]) were 44 nM, 255 nM and 21 nM, respectively. Further, the logD in series [6] is 1.56.
Consider `Nc1nnc(N2CCC(N3CCC[C@@H]3Cc3ccc(Cl)cc3)CC2)[nH]1`, for which the IC50 at Chitotriosidase-1 [2] was found to be 430 nM; in series [3], 120 nM; in series [5] it was 4000 nM. The compound also returned a logD in series [6] of 1.15.
As to `CO[C@H]1C[C@H](Cc2ccc(Cl)cc2)N(C2CCN(c3nnc(N)[nH]3)CC2)C1`, the values for the IC50 (at Chitotriosidase-1 [1]; on Chitotriosidase-1 [2]; in series [3]) were 47 nM, 345 nM and 65 nM, respectively. In series [6], the logD turned out to be 1.6. Besides, in series [4], the inhibition at 2 h, 10 µM amounted to 59%.
`CO[C@H](C)CN(CCc1ccc(Cl)cc1)C1CCN(c2nc(N)n[nH]2)CC1`: the IC50 stood at 530 nM on Chitotriosidase-1 [1], 12500 nM at Chitotriosidase-1 [2], 110 nM in series [3] and 6400 nM in series [5].
The like results for `Nc1n[nH]c(N2CCC(N(CCc3ccc(Cl)cc3)C3COC3)CC2)n1` were, in that order, 180 nM, 5500 nM, 27 nM and 4400 nM.
Consider `CNC(=O)NCCN(CCc1ccc(Cl)cc1)C1CCN(c2nc(N)n[nH]2)CC1`, for which the IC50 at Chitotriosidase-1 [1] came to 1430 nM; on Chitotriosidase-1 [2], 9100 nM; in series [3], 130 nM; in series [5], 1800 nM.
On to `Nc1n[nH]c(N2CCC(N(CCc3ccc(Cl)cc3)CC(=O)O)CC2)n1`, for which the IC50 is 1900 nM at Chitotriosidase-1 [1], 21000 nM at Chitotriosidase-1 [2], 395 nM in series [3] and 8000 nM in series [5].
As for `C[C@H](O)CN(CCc1ccc(Cl)cc1)C1CCN(c2nc(N)n[nH]2)CC1`, the IC50 at Chitotriosidase-1 [1] came out at 145 nM; at Chitotriosidase-1 [2], 2350 nM; in series [5] it was 14000 nM.

One may read the IC50 as the midpoint of a concentration-inhibition curve. One may read the inhibition as the drop in the measured response relative to a control, in per cent. Usually logD stands for the decadic logarithm of the distribution of all forms, ionised or not, between an organic phase and buffer at a given pH.
